Read-outs that look alike come from different tables or passages of the source.
Tests used:
[1] = test system: Capan-1 cells; assay: Immunofluorescence of nuclear γ-H2AX foci (DNA damage); assay type: cell-based, human; conditions: Capan-1, 48 h, 20 μM 35d coadministered with 10 μM olaparib vs olaparib alone
Protocol: (§1) To evaluate DNA damage through γH2AX nuclear foci, BXPC3 and Capan1 cells were seeded on glass coverslips in 6-well tissue culture plate (2 × 10^5 cells/well) and allowed to adhere overnight. After 48 h treatment with olaparib (10 μM) or 35d (20 μM) given alone or in combination, cultures growing on coverslips were fixed and treated as described above. For this experiment, the used antibodies were a rabbit polyclonal anti-γH2AX (Abcam, 1:1000 in 5% BSA/PBS) and a secondary anti-rabbit rhodamine-labeled (Novus Biologicals, 1:1000 in 1% BSA/PBS). For both experiments, images were acquired using a Nikon fluorescent microscope equipped with filters for FITC, TRITC, and DAPI. The percentage of cells bearing nuclear foci was estimated by two independent observers, by analyzing 100–250 cells for each treatment sample.

[2] = test system: BxPC-3 cells; assay: as above; assay type: cell-based, human; conditions: BxPC-3, 48 h, 20 μM 35d + 10 μM olaparib vs olaparib alone
Protocol: as §1

[3] = target: T1, recombinant human RAD51 (Homo sapiens, UniProt Q06609); assay: Microscale thermophoresis (MST) binding assay; conditions: labeled His-hRAD51, 35d up to 40 μM, three replicates, read-out: Kd (RAD51-35d interaction)
T1 construct: made in house; host or cells: E. coli Rosetta2(DE3)pLysS, pET15b-His-hRAD51
T1 sequence (Q06609 1-339): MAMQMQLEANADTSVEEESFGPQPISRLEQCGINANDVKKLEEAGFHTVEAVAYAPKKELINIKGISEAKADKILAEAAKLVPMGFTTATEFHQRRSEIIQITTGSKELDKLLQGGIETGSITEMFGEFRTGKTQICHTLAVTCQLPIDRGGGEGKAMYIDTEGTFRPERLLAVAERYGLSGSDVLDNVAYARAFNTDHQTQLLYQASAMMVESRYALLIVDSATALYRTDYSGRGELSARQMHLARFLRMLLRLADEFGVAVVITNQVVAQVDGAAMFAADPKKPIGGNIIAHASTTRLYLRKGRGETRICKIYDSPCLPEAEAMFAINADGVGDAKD
Protocol: To further assess the physical interaction between 35d and RAD51, a microscale thermophoresis (MST) assay was performed on the recombinant human RAD51 (see Experimental Section). The binding assay allowed us to determine the dissociation constant (Kd) for the RAD51-35d interaction and binding. […] This is in agreement with the ELISA assay, supporting the initial hypothesis that 35d could act as a RAD51-BRCA2 disruptor.
The recombinant protein hRAD51 was labeled with the Monolith His-Tag labeling kit RED-tris-NTA 2nd Generation kit (NanoTemper Technologies). MST measurements were simultaneously performed on 16 capillaries containing a constant concentration (25 nM) of labeled RED-tris-NTA 2nd Generation His-hRAD51 protein and 16 different concentrations of 35d in order to determine a concentration-dependent MST binding curve. The highest 35d concentration tested was 40 μM. Measurements were carried out in MST buffer (20 mM Hepes (pH 8.00), 250 mM KCl, 0.1 mM EDTA, 5% (v/v) glycerol, 5% DMSO).

[4] = target: T2, BRC4–RAD51 interaction (Homo sapiens, UniProt Q06609); assay: Competitive biochemical ELISA assay (biotinylated BRC4 peptide vs RAD51); assay type: binding
T2 construct: purchased Creative Biomart (RAD51); Life Technologies (BRC4 peptide)
T2 sequence (Q06609 1-339): T1 sequence (Q06609 1-339)
How it was run: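 Plates coated with N-terminally biotinylated BRC4 peptide were blocked (1% BSA/PBST) and hybridised overnight with human RAD51. Compounds were tested from 0.01 to 100 μM in triplicate (1% DMSO); bound RAD51 was detected by anti-RAD51 and HRP-secondary antibodies with TMB colorimetric read-out.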

[5] = test system: BxPC-3; assay: Cytotoxicity assay (CellTox Green), cell death; assay type: cell-based, human; conditions: BxPC3, 72 h
Protocol: Cell death was assessed by applying the CellTox Green cytotoxicity assay (Promega). Briefly, BxPC-3 (1 × 10^4/well) were plated in 96-well plates and treated for 72 h with olaparib (10 μM) and the BRCA2-RAD51 disruptors administered alone or in combination. At the end of treatment, the CellTox dye was added to cell cultures and the green fluorescence signal, which is produced by the binding interaction with dead cell DNA, was measured following the manufacturer’s instructions.

SMILES: CCC(=O)N1N=C(c2c(-c3ccccc3)c3cc(Cl)ccc3[nH]c2=O)CC1c1ccc(OC)cc1 (stereo not shown) [Compound 35d, 6-Chloro-3-(5-(4-methoxyphenyl)-1-propionyl-4,5-dihydro-1H-pyrazol-3-yl)-4-phenylquinolin-2(1H)-one]
- γ-H2AX labeling in nuclei [1]: not further enhanced
- γ-H2AX labeling in nuclei [2]: increased
- Kd [3]: 11 ± 6 µM
- EC50 ([4]; Table 2, compounds selected for cell-based study, read-out: EC50 ELISA): 19 ± 1 µM
- EC50 ([4]; competition with BRC4 for RAD51, triplicate, ± standard deviation, NA = not active, racemic mixtures unless enantiomer named, read-out: EC50 (μM) on ELISA assay): 19 ± 1 µM
- cell death, effect of olaparib coadministration ([5]; 20 μM 35d + 10 μM olaparib, p < 0.0001): markedly increased and statistically significant
- cell death, effect of olaparib coadministration ([5]; 10–15 μM 35d + 10 μM olaparib): no statistically significant increase

From PMC7997579, “Synthetic Lethality in Pancreatic Cancer: Discovery of a New RAD51-BRCA2 Small Molecule Disruptor That Inhibits Homologous Recombination and Synergizes with Olaparib” (Journal of Medicinal Chemistry, 2020)
